Data from patent publication US11149056B2, “C7 substituted oxysterols and methods of use thereof” (Sage Therapeutics, Inc., priority 2016, dated 2021).

How the values were obtained:
[1] = target: NMDA receptor 2B (Homo sapiens (Human), UniProt Q05586+Q13224); experiment: Automated patch-clamp (QPatch HTX), NMDA receptor 2B subtype; format: cell-based; conditions: for Emax: read-out: AVG_ EMAX 2B %
Experimental: (§1) Automated Patch-Clamp System (OPatch HTX)
(§2) In general, cells will be passaged at a confluence of about 80% to […]. For electrophysiological measurements cells will be harvested at a confluence of about 80% to 90% from sterile culture flasks containing culture complete medium. Cells will be transferred as suspension in PBS to the QPatch 16X or QPatch HTX system to; the centrifuge/washer directly. Standard Laboratory Conditions; Cells will be incubated at 37° C. in a humidified atmosphere with 5% CO2 (rel. humidity about 95%). Culture media: The cells will be continuously maintained in and passaged in sterile culture flasks containing a 1:1 mixture of Dulbecco's modified eagle medium and nutrient mixture F-12 (D-MEM/F-12 1×, liquid, with L-Glutamine) supplemented with 10% fetal bovine serum, 1% Penicillin/Streptomycin solution, and 50 μM AP-5 blocker. Antibiotics: The complete medium as indicated above is supplemented with 100 μg/mL hygromycin, 15 μg/mL blasticidin and 1 μg/mL puromycin. Induction of Expression-. 2.5 μg/mL tetracycline is added 24 h before start of experiments. Dose Formulation Dose levels are in terms of test compounds, as supplied. Vehicle will be added to achieve a stock concentration of 10 mM (storage at −10° C. to −30° C.). A further stock solutions of 1.0 mM will be prepared in DMSO. Details of stock solution usage (thawing, dose formulations) will be documented in the raw data. The time period of stock solution usage will be detailed in the report. Test Compound Concentrations Dose levels, are in terms of test compounds, as supplied. Vehicle will be added to achieve a stock concentration of 10 mM (storage at −10° C. to −30° C.). A further stock solutions of 1.0 mM will be prepared in DMSO. Details of stock solution usage (thawing, dose formulations) will be documented in the raw data. The time period of stock solution usage will be detailed in the report. One test concentration of 1.0 μM will be tested. All test solutions will be prepared by diluting the stock solutions with either Mg-free bath solution only or Mg-free bath solution containing NMDA (300 μM) and glycine (8.0 μM) shortly prior to the electrophysiological experiments and kept at room temperature (19° C. to 30° C.) when in use. 0.1% DMSO will be used as vehicle. Frequency of preparation. For each test concentration, fresh solutions of test compounds will be prepared every day. Stability of dose formulation: All preparation times will be documented in the raw data. Any observations regarding instability of test compounds will be mentioned in the raw data. Storage of dose formulation: On the day of experimentation dose formulations will be maintained at room temperature (19° C. to 30° C.) when in use, Bath Solutions For preparing the experiments and for formation of the giga-ohm-seal, the following standard bath solution will be used: Sodium Chloride: 137 mM; Potassium Chloride: 4 mM; Calcium Chloride: 1.8 mM; Magnesium Chloride: 1 mM; HEPES: 10 mM; D-Glucose: 10 mM; Cremophor: 0.02%; pH (NaOH): 7.4
The 1× intracellular solution will be thawed every day out of a frozen 1× intracellular solution, which has been prepared prior to the experimental start of the present study, aliquoted and stored at −10° C. to −30° C. When in use, the 1× intracellular solution will kept at room temperature (19° C. to 30° C.). Remaining 1× intracellular solution will be stored in the fridge (1° C. to 9° C.). The 1× intracellular solution will include the components outlined below: Potassium Chloride: 130 mM; Magnesium Chloride: 1 mM; Mg-ATP: 5 mM; HEPES: 10 mM; EGTA: 5 mM; pH (KOH): 7.2 Cell Treatment For this study, cells will continuously be perfused with NMDA/Glycine, Test Compound or Test Compound/NMDA/Glycin. In every case, at least 30-second prewash steps with a test compound will be performed in between applications. For details see Table A below. Each experiment type will be analyzed in at least n=3 isolated cells. […]

[2] = target: glutamate-activated channels of the GRIN1/2A subtype (Homo sapiens (Human), UniProt Q05586+Q12879); experiment: Automated patch-clamp (QPatch HTX), NMDA receptor GRIN1/2A in HEK 293 cells; format: cell-based; conditions: HEK 293 cells stably transfected with GRIN1/2A; 300 μM NMDA + 8 μM glycine; holding potential −80 mV; read-out: AVG_ EC50 2A
Experimental: as §1
In this study, HEK 293 cells stably transfected with glutamate-activated channels of the GRIN1/2A subtype will be used together with submaximal NMDA concentrations (300 μM NMDA, co-application with 8 μM Glycine) to investigate the negative allosteric modulation of the test compounds.
as §2
The 1× bath solution will be prepared by diluting 10× bath solution without Glucose and 100× Glucose solution with water at least every 7 days. Both stock solutions have been prepared prior to the experimental start of the present study and stored at 1° C. to 9° C. (10× bath solution) or −10° C. to −30° (100× Glucose solution). The batch number(s) of the bath solution(s) used in the experiments will be documented in the raw data. When muse, the 1× bath solution will be kept at room temperature (19° C. to 30° C.). When not in use, the 1× bath solution will be stored at 1° C. to 9° C.
After the giga-seal was formed the following Mg-free bath solution will be used: […]

Chain of NMDA receptor 2B (Q13224 27-1484, other chains not shown): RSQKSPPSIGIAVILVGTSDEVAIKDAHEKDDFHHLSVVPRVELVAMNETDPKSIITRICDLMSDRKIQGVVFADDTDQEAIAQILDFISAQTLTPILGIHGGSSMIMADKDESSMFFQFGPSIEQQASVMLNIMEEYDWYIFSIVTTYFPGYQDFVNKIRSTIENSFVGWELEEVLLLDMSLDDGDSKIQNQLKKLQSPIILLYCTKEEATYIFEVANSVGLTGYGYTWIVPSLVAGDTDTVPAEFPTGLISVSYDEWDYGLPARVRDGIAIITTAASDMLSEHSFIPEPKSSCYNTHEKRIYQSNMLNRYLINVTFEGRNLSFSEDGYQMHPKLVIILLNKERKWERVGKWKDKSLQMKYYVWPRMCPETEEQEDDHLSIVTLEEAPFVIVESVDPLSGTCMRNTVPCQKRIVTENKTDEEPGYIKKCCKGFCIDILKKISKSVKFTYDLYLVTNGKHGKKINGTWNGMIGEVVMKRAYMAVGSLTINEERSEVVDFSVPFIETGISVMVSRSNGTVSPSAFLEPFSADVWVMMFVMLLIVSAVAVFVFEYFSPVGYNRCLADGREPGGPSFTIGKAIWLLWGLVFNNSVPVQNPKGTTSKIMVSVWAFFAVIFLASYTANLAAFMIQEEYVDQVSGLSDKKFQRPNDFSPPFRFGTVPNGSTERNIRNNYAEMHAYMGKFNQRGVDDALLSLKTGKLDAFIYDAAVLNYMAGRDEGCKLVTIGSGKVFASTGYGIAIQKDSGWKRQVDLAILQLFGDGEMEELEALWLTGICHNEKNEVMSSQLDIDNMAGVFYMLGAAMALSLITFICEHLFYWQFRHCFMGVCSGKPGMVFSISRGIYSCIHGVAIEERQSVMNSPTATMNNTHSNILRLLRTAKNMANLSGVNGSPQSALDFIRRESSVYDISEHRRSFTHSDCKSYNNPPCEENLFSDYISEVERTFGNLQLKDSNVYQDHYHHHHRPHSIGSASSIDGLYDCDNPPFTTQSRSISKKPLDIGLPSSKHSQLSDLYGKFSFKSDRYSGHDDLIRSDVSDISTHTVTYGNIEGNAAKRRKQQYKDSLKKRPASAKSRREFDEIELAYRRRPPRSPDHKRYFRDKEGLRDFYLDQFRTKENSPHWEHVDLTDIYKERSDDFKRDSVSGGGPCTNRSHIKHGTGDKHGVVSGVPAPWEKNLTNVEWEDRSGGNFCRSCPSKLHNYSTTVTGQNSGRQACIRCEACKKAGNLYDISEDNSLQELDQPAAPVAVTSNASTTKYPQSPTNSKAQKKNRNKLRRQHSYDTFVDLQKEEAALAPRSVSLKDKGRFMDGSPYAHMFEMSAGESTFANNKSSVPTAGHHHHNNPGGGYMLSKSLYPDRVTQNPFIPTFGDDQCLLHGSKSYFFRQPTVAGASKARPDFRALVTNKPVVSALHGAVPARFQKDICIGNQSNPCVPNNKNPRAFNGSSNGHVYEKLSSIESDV
Chain of glutamate-activated channels of the GRIN1/2A subtype (Q12879 23-1464, other chains not shown): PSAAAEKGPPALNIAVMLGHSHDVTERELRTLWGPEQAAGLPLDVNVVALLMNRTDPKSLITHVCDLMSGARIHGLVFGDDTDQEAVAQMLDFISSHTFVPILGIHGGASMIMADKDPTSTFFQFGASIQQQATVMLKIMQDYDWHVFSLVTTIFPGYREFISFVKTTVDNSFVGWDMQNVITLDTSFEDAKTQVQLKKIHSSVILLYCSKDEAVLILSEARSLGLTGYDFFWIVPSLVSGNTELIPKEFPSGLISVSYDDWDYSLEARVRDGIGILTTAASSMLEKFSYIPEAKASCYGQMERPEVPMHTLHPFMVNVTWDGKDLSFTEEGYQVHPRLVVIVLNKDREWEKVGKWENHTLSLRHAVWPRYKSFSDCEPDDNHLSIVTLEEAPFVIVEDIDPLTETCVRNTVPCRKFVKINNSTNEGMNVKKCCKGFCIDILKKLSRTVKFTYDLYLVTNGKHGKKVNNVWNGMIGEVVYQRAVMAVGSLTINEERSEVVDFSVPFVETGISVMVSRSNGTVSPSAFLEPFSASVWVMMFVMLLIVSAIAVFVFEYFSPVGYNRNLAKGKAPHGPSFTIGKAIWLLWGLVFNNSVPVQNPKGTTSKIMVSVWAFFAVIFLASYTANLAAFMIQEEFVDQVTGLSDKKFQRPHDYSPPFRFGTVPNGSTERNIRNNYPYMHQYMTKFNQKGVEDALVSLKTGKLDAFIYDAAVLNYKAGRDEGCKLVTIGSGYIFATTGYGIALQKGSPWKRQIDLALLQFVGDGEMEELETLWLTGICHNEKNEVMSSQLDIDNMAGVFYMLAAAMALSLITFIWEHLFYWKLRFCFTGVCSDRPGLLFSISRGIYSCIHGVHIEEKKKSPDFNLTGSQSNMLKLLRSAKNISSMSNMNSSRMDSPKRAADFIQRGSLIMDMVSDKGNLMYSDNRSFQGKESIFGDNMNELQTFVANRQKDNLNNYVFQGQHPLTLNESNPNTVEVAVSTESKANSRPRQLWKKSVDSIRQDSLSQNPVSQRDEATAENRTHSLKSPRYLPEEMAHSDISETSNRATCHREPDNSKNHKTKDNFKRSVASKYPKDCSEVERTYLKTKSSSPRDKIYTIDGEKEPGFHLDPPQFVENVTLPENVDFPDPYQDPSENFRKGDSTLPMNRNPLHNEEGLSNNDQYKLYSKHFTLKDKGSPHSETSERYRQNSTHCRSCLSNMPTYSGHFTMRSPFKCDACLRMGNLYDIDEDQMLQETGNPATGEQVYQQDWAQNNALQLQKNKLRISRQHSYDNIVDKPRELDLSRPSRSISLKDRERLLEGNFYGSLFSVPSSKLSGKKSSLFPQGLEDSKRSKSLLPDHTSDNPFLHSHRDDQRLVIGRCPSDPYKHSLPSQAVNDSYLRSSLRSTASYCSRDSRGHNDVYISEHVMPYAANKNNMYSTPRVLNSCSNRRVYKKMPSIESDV

Row | Structure (SMILES) | EC50 [1] [nM] | Emax [1] [%] | EC50 [2] [nM]
1 | CC[C@]1(O)CC[C@@]2(C)C(=C[C@@H](C)[C@H]3[C@@H]4CC[C@H]([C@H](C)CCC(C)(C)O)[C@@]4(C)CC[C@@H]32)C1 [Compound U6408] | 132 | 447 | 230
2 | CC[C@]1(O)CC[C@@]2(C)C(=C[C@H](C)[C@H]3[C@@H]4CC[C@H]([C@H](C)CCC(C)(C)O)[C@@]4(C)CC[C@@H]32)C1 [Compound U6409] | > 10000 | 71 | > 10000
3 | CC[C@]1(O)CC[C@@]2(C)[C@@H](CC(=O)[C@@H]3[C@@H]2CC[C@]2(C)[C@@H]([C@H](C)CCC(C)(C)O)CC[C@@H]32)C1 [Compound U6410] | > 10000 | 44 | > 10000
4 | CC[C@]1(O)CC[C@@]2(C)C(=C[C@H](O)[C@H]3[C@@H]4CC[C@H]([C@H](C)CCC(C)(C)O)[C@@]4(C)CC[C@@H]32)C1 [Compound U6429] | 667 | 109 | –
5 | CC[C@]1(O)CC[C@@]2(C)C(=C[C@](C)(O)[C@H]3[C@@H]4CC[C@H]([C@H](C)CCC(C)(C)O)[C@@]4(C)CC[C@@H]32)C1 [Compound U6437] | 741 | 213 | 1620
6 | CC[C@]1(O)CC[C@@]2(C)C(=C[C@@](C)(O)[C@H]3[C@@H]4CC[C@H]([C@H](C)CCC(C)(C)O)[C@@]4(C)CC[C@@H]32)C1 [Compound U6438] | > 10000 | 15 | > 10000
7 | CC[C@]1(O)CC[C@@]2(C)C(=C[C@@H](O)[C@H]3[C@@H]4CC[C@H]([C@H](C)CCC(C)(C)O)[C@@]4(C)CC[C@@H]32)C1 [Compound U6450] | 66 | 111 | –
8 | CC[C@]1(O)CC[C@@]2(C)C(=CC(=O)[C@H]3C4CC[C@H]([C@H](C)CCC(C)(C)O)[C@@]4(C)CC[C@@H]32)C1 (some centres unmarked) [Compound U6461] | > 10000 | 53 | > 10000
9 | C[C@@H]1C=C2C[C@@](C)(O)CC[C@]2(C)[C@H]2CC[C@]3(C)[C@@H]([C@H](C)CC[C@](C)(O)C(F)(F)F)CC[C@H]3[C@H]12 [Compound U6472] | 22 | 231 | –
10 | C[C@H](CC[C@](C)(O)C(F)(F)F)[C@H]1CC[C@H]2[C@@H]3[C@@H](C)C=C4C[C@@](C)(O)CC[C@]4(C)[C@H]3CC[C@]12C [Compound U6473] | > 10000 | 47 | –
11 | C[C@@H]1C=C2C[C@@](C)(O)CC[C@]2(C)[C@H]2CC[C@]3(C)[C@@H]([C@H](C)CC4(O)CCC(C)(C)CC4)CC[C@H]3[C@H]12 [Compound U6477] | 698 | 86 | 747
12 | C[C@H](CC1(O)CCC(C)(C)CC1)[C@H]1CC[C@H]2[C@@H]3[C@@H](C)C=C4C[C@@](C)(O)CC[C@]4(C)[C@H]3CC[C@]12C [Compound U6478] | 160 | 127 | 191
13 | CC[C@]1(O)CC[C@@]2(C)[C@@H](C[C@H](O)[C@@H]3[C@@H]2CC[C@]2(C)[C@@H]([C@H](C)CCC(C)(C)O)CC[C@@H]32)C1 [Compound U6479] | 1420 | 92 | > 10000
